≈ marks a conversion by molar mass, not a printed value. Where “and” joins values, the source holds several entries; their conditions need not be identical. Identical values can stand only once. Counter-ions that a name gives are not always drawn.
Columns and labels:
[1] = tested on: lymphocytic leukemia P388; test: Lymphocytic leukemia P388 test (survival of transplanted mice); type: in vivo
Description: Lymphocytic leukemia P388 test
The animals used are mice, all of one sex, weighing a minimum of 18 g. and all within a 3 gram weight range. There are 5 or 6 animals per test group. The tumor transplant is by intraperitoneal injection of 0.1 ml. or 0.5 ml. of dilute ascitic fluid containing 10^6 cells of lymphocytic leukemia p388. The test compounds are administered intraperitoneally on days one, 5 and 9 (relative to tumor inoculation) at various doses. The animals are weighed and survivors are recorded on a regular basis for 60 days. The median survival time and the ratio of survival time for treated (T)/control (C) animals are calculated. The positive control compound is 5-fluorouracil given as an intraperitoneal injection on days one, 5 and 9. […] The criterion for efficacy is T/C×100≥125%.

[2] = tested on: Staphylococcus aureus Q 74-11; test: Antibacterial spectrum, agar-dilution streak-plate technique; type: cell-based; settings: 37° C.; for MIC: Staphylococcus aureus, Q7411, 18 h, read-out: Minimal Inhibitory Concentration
Description: (§1) The antibacterial spectrum, in terms of the concentration required to inhibit the growth of various typical bacteria, was determined in a standard manner by the agar-dilution streak-plate technique. A Steers multiple inocula replicator was used with incubation at 37° C. for 18 hours in Mueller-Ninton agar. The results for typical compounds of this invention are set forth in Table III below as the minimal inhibitory concentration in micrograms per milliliter.

[3] = tested on: Staphylococcus aureus OSU 75-2; test: as above; type: cell-based; settings: OSU752, 37° C., 18 hours, read-out: Minimal Inhibitory Concentration
Description: as §1

Enterococcus SM 77-15 = test: as above; type: cell-based; settings: SM7715, 37° C., 18 hours, read-out: Minimal Inhibitory Concentration
Description: as §1

[4] = tested on: Staphylococcus aureus St. Paul (NYC 78-1); test: as above; type: cell-based; settings: 37° C., 18 hours, read-out: Minimal Inhibitory Concentration
Description: as §1

melanotic melanoma B16 = test: Melanotic Melanoma B16 test (survival of transplanted mice); type: in vivo, C57BC/6 mice
Description: The animals used are C57BC/6 mice, all of the same sex, weighing a minimum of 17 g. and all within a 3 g. weight range. There are normally 10 animals per test group. A one-gram portion of melanotic melanoma B16 tumor is homogenized in 10 ml. of cold balanced salt solution and a 0.5 ml. aliquot of the homogenate is implanted intraperitoneally into each of the test mice. The test compounds are administered intraperitoneally on days one through 9 (relative to tumor inoculation) at various doses. The animals are weighed and survivors are recorded on a regular basis for 60 days. The median survival time and the ratio of survival time for treated (T)/control (C) animals are calculated. The positive control compound is 5-fluorouracil given as a 20 mg./kg. injection. The results of this test with representative compounds of the present invention appear in Table II below. The criterion for efficacy is T/C×100≥125%.

[5] = 3.12 mg./kg., i.p. days 1, 5 and 9
[6] = 3.12 mg./kg., i.p. days 1, 5 and 9, efficacy criterion ≥125%
[7] = 6.25 mg./kg., i.p. days 1, 5 and 9
[8] = 6.25 mg./kg., i.p. days 1, 5 and 9, efficacy criterion ≥125%
[9] = 12.5 mg./kg., i.p. days 1, 5 and 9
[10] = 12.5 mg./kg., i.p. days 1, 5 and 9, efficacy criterion ≥125%
[11] = 25 mg./kg., i.p. days 1, 5 and 9
[12] = 25 mg./kg., i.p. days 1, 5 and 9, efficacy criterion ≥125%
[13] = 50 mg./kg., i.p. days 1, 5 and 9
[14] = 50 mg./kg., i.p. days 1, 5 and 9, efficacy criterion ≥125%
[15] = 1.5 mg./kg., i.p. days one through 9
[16] = 1.5 mg./kg., i.p. days one through 9, efficacy criterion ≥125%
[17] = 3 mg./kg., i.p. days one through 9
[18] = 3 mg./kg., i.p. days one through 9, efficacy criterion ≥125%
[19] = 6 mg./kg., i.p. days one through 9
[20] = 6 mg./kg., i.p. days one through 9, efficacy criterion ≥125%
[21] = 12 mg./kg., i.p. days one through 9
[22] = 12 mg./kg., i.p. days one through 9, efficacy criterion ≥125%
[23] = 40 mg./kg., i.p. days 1, 5 and 9 (positive control)
[24] = 60 mg./kg., i.p. days 1, 5 and 9 (positive control)
[25] = 20 mg./kg. injection (positive control)

Structure (SMILES)	Median Survival [1, 5]	T/C × 100 [1, 6]	Median Survival [1, 7]	T/C × 100 [1, 8]	Median Survival [1, 9]	T/C × 100 [1, 10]	Median Survival [1, 11]	T/C × 100 [1, 12]	Median Survival [1, 13]	T/C × 100 [1, 14]	Median Survival (melanotic melanoma B16; [17])	T/C × 100 (melanotic melanoma B16; [18])	Median Survival (melanotic melanoma B16; [19])	T/C × 100 (melanotic melanoma B16; [20])	Median Survival (melanotic melanoma B16; [21])	T/C × 100 (melanotic melanoma B16; [22])	also measured
C(=NNC1=NCCN1)C1c2ccccc2C(C=NNC2=NCCN2)c2ccccc21 (centres unmarked) [Bis(2-imidazolin-2-ylhydrazone)-9,10-dihydro-9,10-anthracenedicarboxaldehyde]	14 days	127%	16.5 days	150%	16.5 days	150%	17.5 days	159%	20 days	182%							Median Survival ([1]; 100 mg./kg., i.p. days 1, 5 and 9): 19.5 days; T/C × 100 ([1]; 100 mg./kg., i.p. days 1, 5 and 9, efficacy criterion ≥125%): 177%; Median Survival ([1]; 200 mg./kg., i.p. days 1, 5 and 9): 23 days; Median Survival ([1]; 400 mg./kg., i.p. days 1, 5 and 9): 25 days; T/C × 100 ([1]; 400 mg./kg., i.p. days 1, 5 and 9, efficacy criterion ≥125%): 227%; T/C × 100 ([1]; mouse, in vivo, ip): 209; MIC [2]: 32 µg/mL (≈ 79.9 µM); MIC [3]: 128 µg/mL (≈ 320 µM); MIC (Enterococcus SM 77-15): 16 µg/mL (≈ 40 µM); MIC [4]: 64 µg/mL (≈ 160 µM)
COc1ccc(OC)c2c1C(C=NNC1=NCCN1)c1ccccc1C2C=NNC1=NCCN1 (centres unmarked) [1,4-Dimethoxy-bis-(2-imidazolin-2-ylhydrazone)-9,10-dihydro-9,10-anthracenedicarboxaldehyde]																	MIC [2]: 64 µg/mL (≈ 139 µM); MIC [3]: 128 µg/mL (≈ 278 µM); MIC (Enterococcus SM 77-15): 256 µg/mL (≈ 556 µM); MIC [4]: 128 µg/mL (≈ 278 µM)
Cc1ccc2c(c1)C(C=NNC1=NCCN1)c1ccccc1C2C=NNC1=NCCN1 (centres unmarked) [2-Methyl-bis(2-imidazolin-2-ylhydrazone)-9,10-dihydro-9,10-anthracenedicarboxaldehyde dihydrochloride]	13.5 days	142%	14.5 days	153%	16.0 days	168%	16.0 days	168%	19.0 days	200%	25.0 days	147%	28.0 days	165%	33.5 days	197%	Median Survival (melanotic melanoma B16; [15]): 24.0 days; T/C × 100 (melanotic melanoma B16; [16]): 141%
Clc1cccc2c1C(C=NNC1=NCCN1)c1ccccc1C2C=NNC1=NCCN1 (centres unmarked) [1-Chloro-bis(2-imidazolin-2-ylhydrazone)-9,10-dihydro-9,10-anthracenedicarboxaldehyde dihydrochloride]	15.5 days	163%	16.5 days	174%	19.5 days	205%	21.0 days	221%			22.0 days	129%	25.5 days	150%	31.0 days	182%	
O=c1[nH]cc(F)c(=O)[nH]1 [5-Fluorouracil, reference compound]																	Median Survival [1, 23]: 19.0 days and 18 days; T/C × 100 [1, 23]: 181% and 164%; Median Survival [1, 24]: 15.0 days and 18.5 days; T/C × 100 [1, 24]: 158% and 185%; T/C × 100 ([1]; mouse, in vivo, ip): 158; Median Survival (melanotic melanoma B16; [25]): 30 days and 28.5 days; T/C × 100 (melanotic melanoma B16; [25]): 187% and 168%
Clc1ccc2c(c1)C(C=NNC1=NCCN1)c1ccccc1C2C=NNC1=NCCN1 (centres unmarked) [2-Chloro-bis(2-imidazolin-2-ylhydrazone)-9,10-dihydro-9,10-anthracenedicarboxaldehyde dihydrochloride]	17.5 days	175%	18.5 days	185%	18.0 days	180%	18.0 days	180%	20.0 days	200%							
COc1ccc(OC)c2c1C(C=NNC1=NCCN1)c1ccccc1C2C=NNC1=NCCN1 (centres unmarked) [Bis-(2-imidazolin-2-ylhydrazone)-1,4-dimethoxy-9,10-dihydro-9,10-anthracenedicarboxaldehyde dihydrochloride]																	Minimal Inhibitory Concentration ([2]; 18 hours, dihydrochloride): 128 µg/mL
C(=NNC1=NCCN1)C1c2ccccc2C(C=NNC2=NCCN2)c2ccccc21 (centres unmarked) [Bis(2-imidazolin-2-ylhydrazone)-9,10-dihydro-9,10-anthracenedicarboxaldehyde dihydrochloride]				129%		152%					22.0 days	138%	25.0 days	156%	32.0 days	200%	Median Survival ([1]; 6.25 mg./kg., i.p. days 1, 5 and 9, dihydrochloride): 13 days; Median Survival ([1]; 12.5 mg./kg., i.p. days 1, 5 and 9, dihydrochloride): 16 days; Median Survival (melanotic melanoma B16; [15]): 21.0 days; T/C × 100 (melanotic melanoma B16; [16]): 131%

Source: patent US4235996A, “Bis(2-imida zolin-2-ylhydrazone)-9,10-dihydro-9,10-anthracenedicarboxaldehydes” (American Cyanamid Company, priority 1978, dated 1980)
